Eight compounds from patent US6143764A, “Quinoline and quinazoline derivatives inhibiting platelet-derived growth factor receptor autophosphorylation and pharmaceutical compositions containing the same” (priority 1995, dated 2000) can be followed below.

For test [1], the system named is glomerulonephritis associated with mesangial cell growth in rats. Description: Effect on nephritis associated with mesangial cell growth in rats (OX-7 induced glomerulonephritis). To be noted: 8 days. Format: in vivo, Wistar-Kyoto rat. As to the method:
Effect on nephritis associated with mesangial cell growth in rats
Groups of 6 Wistar-Kyoto male rats (7 weeks old, purchased from Charles River Japan, Inc.) were used. OX-7 (prepared according to Pathol. Int., 45, 409 (1995)), a monoclonal antibody against anti-rat Thy1.1, was injected intravenously into the tails of rats at a dose of 1.2 mg/kg to induce glomerulonephritis associated with mesangial cell growth and extracellular matrix accumulation. A test drug suspended in a vehicle, a 1% aqueous cremophor solution, was administered orally 2 times a day starting one day after an OX-7 injection for 8 consecutive days. On day 9, when pathological changes in glomeruli became markedly apparent, the rats were sacrificed and anatomized under anesthesia with ether, and left kidneys were taken out and fixed in formalin. The kidneys were embedded in paraffin and then sectioned thinly, and the sections were stained with a periodic acid-Schiff's reagent. The 20 glomeruli were arbitrarily selected for individual specimens thus prepared, and pathological sclerotic changes were scored as follows:
Average scores for sclerotic change of individual specimens were calculated to quantify the degree of glomerular sclerosis. Average scores of glomerular sclerosis for individual specimens of rat groups administered with the drug were compared with those for control groups administered with the vehicle only to calculate glomerular sclerosis inhibition rates (%). The significance of differences was determined by the Dunnet method after testing homoscedasticity according to the Bartlett method.

The target of the next test is T1, PDGF receptor (Rattus norvegicus, UniProt Q05030).
T1 construct: cultured rat mesangial cells which are known to have the PDGF receptor; endogenous in cells; host or cells: primary mesangial cells cultured from glomeruli of Wistar-Kyoto rats (Charles River Japan), more than 5 passages
T1 sequence (Q05030 32-1097): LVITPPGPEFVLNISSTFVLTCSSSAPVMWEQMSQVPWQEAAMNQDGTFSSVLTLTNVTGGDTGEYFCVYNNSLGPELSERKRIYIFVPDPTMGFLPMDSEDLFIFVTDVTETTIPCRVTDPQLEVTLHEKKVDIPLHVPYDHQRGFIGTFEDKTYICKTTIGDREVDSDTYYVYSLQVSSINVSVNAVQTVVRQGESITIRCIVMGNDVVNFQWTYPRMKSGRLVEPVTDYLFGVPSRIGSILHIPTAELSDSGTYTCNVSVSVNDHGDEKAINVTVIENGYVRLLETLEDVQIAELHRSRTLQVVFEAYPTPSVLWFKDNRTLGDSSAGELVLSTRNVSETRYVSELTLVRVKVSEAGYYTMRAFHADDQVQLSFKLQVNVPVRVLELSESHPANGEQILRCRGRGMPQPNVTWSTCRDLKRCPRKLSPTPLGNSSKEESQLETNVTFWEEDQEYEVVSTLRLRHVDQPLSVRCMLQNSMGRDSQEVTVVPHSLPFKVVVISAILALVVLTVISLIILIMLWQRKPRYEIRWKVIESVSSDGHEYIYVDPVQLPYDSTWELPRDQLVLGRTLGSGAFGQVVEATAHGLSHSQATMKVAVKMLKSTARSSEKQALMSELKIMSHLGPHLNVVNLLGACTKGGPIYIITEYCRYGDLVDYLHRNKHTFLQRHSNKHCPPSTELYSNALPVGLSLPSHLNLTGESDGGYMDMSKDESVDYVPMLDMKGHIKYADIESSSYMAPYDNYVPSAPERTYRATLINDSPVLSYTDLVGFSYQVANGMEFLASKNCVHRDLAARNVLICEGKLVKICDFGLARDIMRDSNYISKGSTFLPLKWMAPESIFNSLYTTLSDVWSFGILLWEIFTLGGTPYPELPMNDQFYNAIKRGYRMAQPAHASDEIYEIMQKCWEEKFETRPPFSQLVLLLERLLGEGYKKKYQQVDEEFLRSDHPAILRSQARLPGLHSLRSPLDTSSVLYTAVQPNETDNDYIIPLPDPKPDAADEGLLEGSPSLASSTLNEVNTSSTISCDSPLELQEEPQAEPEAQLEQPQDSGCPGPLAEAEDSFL
As to the kind of experiment: PDGF receptor autophosphorylation inhibition in cultured rat mesangial cells. Format: cell-based. As to conditions: PDGF-BB 50 ng/ml. In outline: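 Growth-arrested rat mesangial cells (>5 passages, 0.5% FCS for 3 days) preincubated with drug in 0.1% BSA medium for 1 h at 37° C., then stimulated with 50 ng/ml human PDGF-BB for 10 min. Phosphotyrosine Western blot of ~180 kDa receptor band by densitometry, normalized to PDGF-stimulated (100%) and unstimulated (0%) wells.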

For another test, the system named is COL-1 (colon). Description: Antitumor effect against COL-1 colon tumor in nude mice. Format: in vivo. As to conditions: 100 mg/kg intraperitoneally once a day, 9 days. As to the method: (§1) Human glioma, GLO7 (obtained from the Central Institute for Experimental Animals), was transplanted into nude mice. When the tumor had grown to a volume of about 100 mm^3, the nude mice were divided into several groups of 4 animals so as to equalize the average tumor volumes of each group. The test drug was administered orally to animals in experimental groups 2 times a day for 14 consecutive days at 100 mg/kg, and the vehicle was administered to control animals. The tumor growth inhibition rate (TGIR, %) was calculated from the equation: TGIR=(1-Tx/Cx)×100, in which Cx is the tumor volume in the control mice and Tx is the tumor volume in the drug-treated mice, on day X, when the initial tumor volume at the time treatment was commenced is set 1.
(§2) In the same manner as described in 2, various types of tumor cells (obtained from the Central Institute for Experimental Animals) were transplanted into nude mice. When the tumor had grown to a volume of about 100 mm^3, the animals were allocated to several groups each consisting of 4 animals so as to equalize the average tumor volume of each group. Test drugs were administered intraperitoneally to animals in experimental groups once a day for 9 consecutive days at 100 mg/kg, and the vehicle was administered to control animals.

In another test the test system is St-4 (stomach). As to the kind of experiment: Antitumor effect against St-4 stomach tumor in nude mice. Format: in vivo. As to conditions: 100 mg/kg intraperitoneally once a day, 9 days. The procedure: as §1, §2
For the next test, the system named is L-27 (lung). As to the kind of experiment: Antitumor effect against L-27 lung tumor in nude mice. Format: in vivo. As to conditions: 100 mg/kg intraperitoneally once a day, 9 days. As to the method:
as §1, §2

In the next test the test system is human glioma (GLO7). As to the kind of experiment: Antitumor effect of the compounds against human glioma (GLO7), nude mice xenograft. Format: in vivo. To be noted: Mus musculus, po, 216 h, read-out: Tumor growth inhibition rate (TGIR).
Test [2] relates to mouse leukemia cells (P388). Description: Antitumor effect against mouse leukemia cells (P388), survival of mice. Format: in vivo. As to conditions: CDF1 mice, 100 mg/kg intraperitoneally, 9 consecutive days. As to the method:
P388 cells (1×10^5 cells), mouse leukemia cells obtained from ATCC, were inoculated intraperitoneally into CDF1 mice (obtained from Japan SLC, Inc.), and then the test compound was administered intraperitoneally for 9 consecutive days at the dose of 100 mg/kg. The drug-treated animals survived longer than control animals by 130%.

For test [3], the system named is collagen-induced arthritis in mice. As to the kind of experiment: Effect on collagen-induced arthritis in mice. Format: in vivo, mouse (DBA/lJNCrj). To be noted: for Number of mice with arthritis/total mice: 16 days; for Incidence of collagen-induced arthritis: 16 days (vehicle 70).
The subject of test [4] is human glioma cells (GLO7). As to the kind of experiment: Antitumor effect of compound number 43 against human glioma (GLO7), nude mice xenograft. Format: in vivo. To be noted: 100 mg/kg orally 2 times a day, 14 days, test period about 4 weeks. As to the method:
as §1, with “1. During the test period of about 4 weeks, the maximum TGIR value was 76%, and thus an excellent antitumor effect was observed.” for “1.”

Where [5] appears, read: nude mice, 50 mg/kg orally once a day, 9 days.

Where two headings read alike, the source gives them in different places.

The term IC50 denotes the midpoint of a concentration-inhibition curve. The low end stands for greater potency in that assay, the high end for weaker potency in that assay. As to `COc1cc2nccc(Oc3ccc(C(=O)c4ccc(C(C)(C)C)cc4)cc3)c2cc1OC` [Compound 32, (4-t-Butylphenyl){4-[(6,7-dimethoxy-4-quinolyl)oxy]phenyl}methanone], the “Glomerular sclerosis inhibition rate” value is 11.7% in test [1] (10 mg/kg oral 2 times a day, p < 0.05); 10.2% in [1] (30 mg/kg oral 2 times a day, p < 0.05); 13.7% in test [1] (100 mg/kg oral 2 times a day, p < 0.01). At PDGF receptor, this compound gave a half-maximal inhibitory concentration (IC50) of 0.3 µM.

With `COc1cccc(NC(=O)Nc2ccc(Oc3ccnc4cc(OC)c(OC)cc34)cc2)c1` [Compound 58], the “Tumor growth inhibition rate (TGIR)” value turned out to be 74% with COL-1 (colon), 86% in the test with St-4 (stomach) and 96% in the test on L-27 (lung). The inhibition in vivo at 50 mg/kg in the test on human glioma (GLO7) was 57%.

The compound `COc1cc2nccc(Oc3ccc(NC(=O)Nc4cc(F)c(F)cc4F)cc3)c2cc1OC` [Compound 255, N-(2,4,5-Trifluorophenyl)-N'-{4-[(6,7-dimethoxy-4-quinolyl)oxy]phenyl}urea] yielded an IC50 against PDGF receptor of 0.015 µM. Moreover, the inhibition in vivo at 50 mg/kg with human glioma (GLO7) (setting [5]) stood at 86%.

On PDGF receptor, `COc1cc2nccc(Oc3ccc(NC(=O)Nc4ccccc4[N+](=O)[O-])cc3)c2cc1OC` [Compound 168, N-{4-[(6,7-Dimethoxy-4-quinolyl)oxy]phenyl}-N'-(2-nitrophenyl)urea] had a half-inhibitory concentration (IC50) of 0.006 µM. The inhibition in vivo at 50 mg/kg in the test with human glioma (GLO7) (setting [5]) amounted to 56%.

Regarding `COc1cc2nccc(Oc3ccc(NC(=O)Nc4cccc(F)c4)cc3)c2cc1OC` [Compound 59], at PDGF receptor, the IC50 worked out at 0.004 µM. Besides, the inhibition in vivo at 50 mg/kg in the test on human glioma (GLO7) (setting [5]) came to 82%.

Turning to `COc1cc2nccc(Oc3ccc(NC(=O)Nc4ccc(Br)cc4)cc3)c2cc1OC` [Compound 45, N-(4-Bromophenyl)-N'-{4-[(6,7-dimethoxy-4-quinolinyl)oxy]phenyl}urea], it took 0.014 µM to reach half-maximal inhibition on PDGF receptor (IC50). The inhibition in vivo at 50 mg/kg in the test with human glioma (GLO7) (setting [5]) turned out to be 68%.

In the case of `COc1ccc(NC(=O)Nc2ccc(Oc3ccnc4cc(OC)c(OC)cc34)cc2)cc1` [Compound 43, N-(4-Methoxyphenyl)-N'-{4-[(6,7-dimethoxy-4-quinolinyl)oxy]phenyl}urea], in test [2], the “prolonged survival: drug-treated animals survived longer than control animals by” value turned out to be 130%. Also, the entries for the “Tumor growth inhibition rate (TGIR)” value with COL-1 (colon), in the test on St-4 (stomach) and in the test on L-27 (lung) were 68%, 78% and 83%, respectively. Besides, the “Number of mice with arthritis/total mice” value in test [3] (10 mg/kg intraperitoneally) was 1/9; in test [3] (100 mg/kg intraperitoneally) it was 0/10. For the same compound, the “Incidence of collagen-induced arthritis” value came to 11% in [3] (10 mg/kg intraperitoneally) and 0% in test [3] (100 mg/kg intraperitoneally). Further, the IC50 against PDGF receptor was 0.005 µM. Besides, in [4], the “maximum tumor growth inhibition rate (TGIR)” value came to 76%.

At PDGF receptor, `COc1cc2nccc(Oc3ccc(NC(=O)Nc4cccc(Cl)c4)cc3)c2cc1OC` [Compound 267, N-(3-Chlorophenyl)-N'-{4-[(6,7-dimethoxy-4-quinolyl)oxy]phenyl}urea] returned an IC50 of 0.15 µM. The inhibition in vivo at 50 mg/kg in the test with human glioma (GLO7) (setting [5]) is 65%.
